Measurements published in the OligoGym collection.
HELM strings list units from the 5' end as sugar, base in round brackets, then linkage (d deoxyribose, r ribose, m 2'-O-methyl, p phosphodiester). Strings are as the collection lists them; they lack the last nucleoside at the 3' end of the tested compound. [moe] = 2'-O-(2-methoxyethyl) (MOE); [sp] = phosphorothioate linkage; [m5C] = 5-methylcytosine

Target: FUS
Assay: mouse, dose not given
Details: ASO

| Substance | 3 h FOB score [score 0-7] |
| --- | --- |
| RNA1{[moe](A)[sp].[moe](G)p.[moe](G)p.[moe](T)p.[moe](T)p.d(A)[sp].d([m5C])[sp].d(A)[sp].d(A)[sp].d(A)[sp].d(A)[sp].d(T)[sp].d(A)[sp].d(A)[sp].d([m5C])[sp].[moe](G)p.[moe](A)p.[moe](G)[sp].[moe](G)}$$$$ (last 3' nucleoside missing) | 5.75 |
| RNA1{[moe](A)[sp].[moe](G)p.[moe](G)p.[moe]([m5C])p.[moe](A)p.d(A)[sp].d([m5C])[sp].d(T)[sp].d(T)[sp].d([m5C])[sp].d([m5C])[sp].d([m5C])[sp].d([m5C])[sp].d(T)[sp].d(T)[sp].[moe](A)p.[moe](A)p.[moe](A)[sp].[moe](G)}$$$$ (last 3' nucleoside missing) | 1 |
| RNA1{[moe](A)[sp].[moe](G)p.[moe](T)p.[moe](T)p.[moe](A)p.d([m5C])[sp].d(A)[sp].d(A)[sp].d(T)[sp].d(T)[sp].d(A)[sp].d([m5C])[sp].d(A)[sp].d(T)[sp].d(A)[sp].[moe](G)p.[moe](T)p.[moe]([m5C])[sp].[moe]([m5C])}$$$$ (last 3' nucleoside missing) | 4 |
| RNA1{[moe](A)[sp].[moe](G)p.[moe](T)p.[moe]([m5C])p.[moe](A)p.d(G)[sp].d(G)[sp].d(T)[sp].d(T)[sp].d(A)[sp].d(A)[sp].d([m5C])[sp].d([m5C])[sp].d(A)[sp].d(T)[sp].[moe](T)p.[moe](A)p.[moe]([m5C])[sp].[moe]([m5C])}$$$$ (last 3' nucleoside missing) | 1 |
| RNA1{[moe](A)[sp].[moe](T)p.[moe]([m5C])p.[moe](A)p.[moe](T)p.d([m5C])[sp].d(G)[sp].d(G)[sp].d(T)[sp].d(T)[sp].d(T)[sp].d([m5C])[sp].d([m5C])[sp].d([m5C])[sp].d(T)[sp].[moe](T)p.[moe](G)p.[moe]([m5C])[sp].[moe](A)}$$$$ (last 3' nucleoside missing) | 5.5 |
| RNA1{[moe](A)[sp].[moe]([m5C])p.[moe]([m5C])p.[moe](A)p.[moe](T)p.d([m5C])[sp].d([m5C])[sp].d(T)[sp].d(T)[sp].d(A)[sp].d(A)[sp].d(A)[sp].d(A)[sp].d([m5C])[sp].d([m5C])[sp].[moe](G)p.[moe](T)p.[moe](G)[sp].[moe](T)}$$$$ (last 3' nucleoside missing) | 1 |
| RNA1{[moe](G)[sp].[moe](A)p.[moe](G)p.[moe]([m5C])p.[moe](T)p.d(A)[sp].d(G)[sp].d(T)[sp].d(T)[sp].d(T)[sp].d([m5C])[sp].d(T)[sp].d(A)[sp].d(T)[sp].d(T)[sp].[moe](T)p.[moe](G)p.[moe]([m5C])[sp].[moe]([m5C])}$$$$ (last 3' nucleoside missing) | 0 |
| RNA1{[moe](G)[sp].[moe](A)p.[moe]([m5C])p.[moe]([m5C])p.[moe]([m5C])p.d([m5C])[sp].d(T)[sp].d([m5C])[sp].d(T)[sp].d(T)[sp].d(A)[sp].d(T)[sp].d(T)[sp].d(A)[sp].d(A)[sp].[moe]([m5C])p.[moe]([m5C])p.[moe](T)[sp].[moe](G)}$$$$ (last 3' nucleoside missing) | 4 |
| RNA1{[moe](G)[sp].[moe](G)p.[moe](T)p.[moe](T)p.[moe](A)p.d([m5C])[sp].d(A)[sp].d(A)[sp].d(A)[sp].d(A)[sp].d(T)[sp].d(A)[sp].d(A)[sp].d([m5C])[sp].d(G)[sp].[moe](A)p.[moe](G)p.[moe](G)[sp].[moe](G)}$$$$ (last 3' nucleoside missing) | 3 |
| RNA1{[moe](G)[sp].[moe](G)p.[moe](T)p.[moe](T)p.[moe](G)p.d(A)[sp].d([m5C])[sp].d(A)[sp].d(A)[sp].d([m5C])[sp].d([m5C])[sp].d(A)[sp].d(A)[sp].d(G)[sp].d(T)[sp].[moe](A)p.[moe](G)p.[moe](T)[sp].[moe](T)}$$$$ (last 3' nucleoside missing) | 5 |
| RNA1{[moe](G)[sp].[moe](G)p.[moe](T)p.[moe]([m5C])p.[moe](A)p.d([m5C])[sp].d(T)[sp].d(T)[sp].d(T)[sp].d(T)[sp].d(A)[sp].d(A)[sp].d(T)[sp].d(G)[sp].d(G)[sp].[moe](G)p.[moe](A)p.[moe](A)[sp].[moe]([m5C])}$$$$ (last 3' nucleoside missing) | 4.75 |
| RNA1{[moe](G)[sp].[moe](G)p.[moe]([m5C])p.[moe](A)p.[moe](T)p.d(T)[sp].d([m5C])[sp].d(T)[sp].d(A)[sp].d([m5C])[sp].d([m5C])[sp].d([m5C])[sp].d(T)[sp].d(A)[sp].d([m5C])[sp].[moe]([m5C])p.[moe]([m5C])p.[moe]([m5C])[sp].[moe](T)}$$$$ (last 3' nucleoside missing) | 1 |
| RNA1{[moe](G)[sp].[moe](T)p.[moe](A)p.[moe](G)p.[moe](G)p.d(G)[sp].d(T)[sp].d([m5C])[sp].d([m5C])[sp].d(T)[sp].d(T)[sp].d([m5C])[sp].d(A)[sp].d(A)[sp].d(A)[sp].[moe](T)p.[moe]([m5C])p.[moe](T)[sp].[moe](T)}$$$$ (last 3' nucleoside missing) | 1 |
| RNA1{[moe](G)[sp].[moe](T)p.[moe](A)p.[moe](T)p.[moe](A)p.d([m5C])[sp].d([m5C])[sp].d(A)[sp].d(A)[sp].d([m5C])[sp].d(T)[sp].d(T)[sp].d([m5C])[sp].d(A)[sp].d([m5C])[sp].[moe]([m5C])p.[moe](A)p.[moe](T)[sp].[moe]([m5C])}$$$$ (last 3' nucleoside missing) | 1 |
| RNA1{[moe](G)[sp].[moe](T)p.[moe](T)p.[moe](A)p.[moe]([m5C])p.d(A)[sp].d(A)[sp].d(T)[sp].d(T)[sp].d(A)[sp].d([m5C])[sp].d(A)[sp].d(T)[sp].d(A)[sp].d(G)[sp].[moe](T)p.[moe]([m5C])p.[moe]([m5C])[sp].[moe](G)}$$$$ (last 3' nucleoside missing) | 4.5 |
| RNA1{[moe](G)[sp].[moe](T)p.[moe](T)p.[moe](T)p.[moe](A)p.d(T)[sp].d([m5C])[sp].d(T)[sp].d(G)[sp].d(A)[sp].d(A)[sp].d(T)[sp].d(T)[sp].d([m5C])[sp].d(G)[sp].[moe]([m5C])p.[moe]([m5C])p.[moe](A)[sp].[moe](T)}$$$$ (last 3' nucleoside missing) | 5.25 |
| RNA1{[moe](G)[sp].[moe](T)p.[moe]([m5C])p.[moe](A)p.[moe](G)p.d(G)[sp].d(T)[sp].d(T)[sp].d(A)[sp].d(A)[sp].d([m5C])[sp].d([m5C])[sp].d(A)[sp].d(T)[sp].d(T)[sp].[moe](A)p.[moe]([m5C])p.[moe]([m5C])[sp].[moe](A)}$$$$ (last 3' nucleoside missing) | 2.5 |
| RNA1{[moe](G)[sp].[moe]([m5C])p.[moe](A)p.[moe](A)p.[moe](A)p.d(G)[sp].d(A)[sp].d(T)[sp].d(A)[sp].d(G)[sp].d(T)[sp].d(T)[sp].d(A)[sp].d([m5C])[sp].d([m5C])[sp].[moe]([m5C])p.[moe](T)p.[moe]([m5C])[sp].[moe]([m5C])}$$$$ (last 3' nucleoside missing) | 1 |
| RNA1{[moe](G)[sp].[moe]([m5C])p.[moe](A)p.[moe](A)p.[moe](T)p.d(G)[sp].d(T)[sp].d([m5C])[sp].d(A)[sp].d([m5C])[sp].d([m5C])[sp].d(T)[sp].d(T)[sp].d(T)[sp].d([m5C])[sp].[moe](A)p.[moe](T)p.[moe](A)[sp].[moe]([m5C])}$$$$ (last 3' nucleoside missing) | 0 |
| RNA1{[moe](G)[sp].[moe]([m5C])p.[moe]([m5C])p.[moe](A)p.[moe]([m5C])p.d(A)[sp].d(G)[sp].d(A)[sp].d([m5C])[sp].d(T)[sp].d([m5C])[sp].d(A)[sp].d(A)[sp].d(T)[sp].d(T)[sp].[moe](G)p.[moe](T)p.[moe](A)[sp].[moe](A)}$$$$ (last 3' nucleoside missing) | 1 |
| RNA1{[moe](T)[sp].[moe](G)p.[moe](T)p.[moe](T)p.[moe](T)p.d(A)[sp].d(T)[sp].d([m5C])[sp].d(T)[sp].d(G)[sp].d(A)[sp].d(A)[sp].d(T)[sp].d(T)[sp].d([m5C])[sp].[moe](G)p.[moe]([m5C])p.[moe]([m5C])[sp].[moe](A)}$$$$ (last 3' nucleoside missing) | 3 |
| RNA1{[moe](T)[sp].[moe](T)p.[moe](A)p.[moe]([m5C])p.[moe](A)p.d(A)[sp].d(T)[sp].d(T)[sp].d(A)[sp].d([m5C])[sp].d(A)[sp].d(T)[sp].d(A)[sp].d(G)[sp].d(T)[sp].[moe]([m5C])p.[moe]([m5C])p.[moe](G)[sp].[moe](A)}$$$$ (last 3' nucleoside missing) | 2 |
| RNA1{[moe](T)[sp].[moe]([m5C])p.[moe](A)p.[moe](T)p.[moe]([m5C])p.d(G)[sp].d(G)[sp].d(T)[sp].d(T)[sp].d(T)[sp].d([m5C])[sp].d([m5C])[sp].d([m5C])[sp].d(T)[sp].d(T)[sp].[moe](G)p.[moe]([m5C])p.[moe](A)[sp].[moe](G)}$$$$ (last 3' nucleoside missing) | 2.25 |
| RNA1{[moe](T)[sp].[moe]([m5C])p.[moe]([m5C])p.[moe](A)p.[moe]([m5C])p.d(G)[sp].d(A)[sp].d(A)[sp].d(T)[sp].d(T)[sp].d([m5C])[sp].d(A)[sp].d(G)[sp].d(T)[sp].d(T)[sp].[moe](T)p.[moe](G)p.[moe](T)[sp].[moe](G)}$$$$ (last 3' nucleoside missing) | 4 |
| RNA1{[moe]([m5C])[sp].[moe]([m5C])[sp].[moe](T)[sp].[moe](G)[sp].[moe](G)[sp].d(T)[sp].d(T)[sp].d(A)[sp].d(T)[sp].d(T)[sp].d(T)[sp].d([m5C])[sp].d([m5C])[sp].d([m5C])[sp].d(A)[sp].[moe](T)[sp].[moe](G)[sp].[moe](A)[sp].[moe](G)}$$$$ (last 3' nucleoside missing) | 6 |
| RNA1{[moe]([m5C])[sp].[moe]([m5C])p.[moe](G)p.[moe](T)p.[moe](G)p.d(T)[sp].d(T)[sp].d(G)[sp].d(T)[sp].d(T)[sp].d(T)[sp].d([m5C])[sp].d([m5C])[sp].d([m5C])[sp].d([m5C])[sp].[moe](G)p.[moe](A)p.[moe](A)[sp].[moe](A)}$$$$ (last 3' nucleoside missing) | 1 |
